Data from US4382939A, “3-[2-(Mono-and dialkylamino)propyl]-1,2,3,4-tetrahydro-5H-[1]benzopyrano[3,4-C]pyridin- 5-ones useful for treating bronchospastic diseases” (Warner Lambert Company, priority 1982, dated 1983).

What was measured:
[1] = test system: collapse on exposure to an aerosol of methacholine; assay: Anticholinergic test: prolongation of collapse time in conscious guinea pigs exposed to an aerosol of methacholine; type: in vivo; settings: guinea pig, 25 mg/kg intraperitoneally; 10 minutes methacholine aerosol; Control 1.9 to 2.0
Protocol: The compounds of the invention display anticholinergic properties when tested by the following procedure: Conscious guinea pigs, six at a time, are put into a sealed chamber and exposed for 10 minutes to an aerosol of methacholine. Untreated animals or those treated with vehicle will collapse in 1.9±0.1 minutes. Groups of animals are injected intraperitoneally with 25 mg/kg of test compound and exposed in the chamber under the same conditions. Compounds which prolong the collapse time past that of the control animals are considered active.

[2] = test system: bronchospasm (pilocarpine nitrate); assay: Inhibition of pilocarpine-induced bronchospasm in anesthetized dogs (pulmonary mechanics); type: in vivo, mongrel dogs; settings: for ED50: Canis lupus familiaris, iv, anesthetized dogs, cumulative i.v. doses, pilocarpine-induced bronchospasm, read-out: ID50 Bronchospasm; for Pulmonary Selectivity*: dogs, i.v., >1 indicates more potent as a bronchodilator than as an antisecretory agent
Protocol: (§1) In an additional testing procedure, mongrel dogs of either sex, 10.6 to 15.3 kg, are anesthetized with sodium pentobarbital, 30 mg/kg i.v. and then prepared for the monitoring of pulmonary mechanics. A Buxco pulmonary mechanics computer is used to calculate pulmonary resistance, dynamic compliance, and tidal volume from transpulmonary pressure and flow data. Respiratory rate, heart rate and mean arterial blood pressure are also monitored. The femoral vein is cannulated for the delivery of drugs. Pilocarpine nitrate (0.2 mg/kg/hr) is than infused to induce a bronchospasm and salivary flow. […] Salivary output is collected from a catheterized Wharton's duct at five minute intervals. After salivation has stabilized, 3 control collections are taken at 5 minute intervals followed by a series of cumulative i.v. doses of test compound (1, 3, 10, 30, 100, 300, 1000, 3000, and 10,000 μg/kg) that are injected every 5 minutes for 45 minutes. The percent inhibition of both the bronchospasm and salivation are calculated for each dose with a return to pre-pilocarpine resistance levels or cessation of salivation equal to a 100% inhibition.

[3] = test system: salivation (pilocarpine nitrate); assay: Inhibition of pilocarpine-induced salivation in anesthetized dogs; type: in vivo, mongrel dogs; settings: Canis lupus familiaris, iv, cumulative i.v. doses, pilocarpine-induced salivary flow, read-out: ID50 Salivation
Protocol: as §1

SMILES	(Minutes Protection) [1] [min]	ED50 [2] [mg/kg]	Pulmonary Selectivity* [2]	ED50 [3] [mg/kg]
CCN(CC)C(C)CN1CCc2c(c(=O)oc3ccccc23)C1 (centres unmarked) [H H H Et Et, 3-[2-(Diethylamino)propyl]-1,2,3,4-tetrahydro-5H-[1]benzopyrano[3,4-c]pyridin-5-one]	10.0	0.336	7	2.31
CCNC(C)CN1CCc2c(c(=O)oc3ccccc23)C1 (centres unmarked) [H H H Et H, 3-[2-(Ethylamino)propyl]-1,2,3,4-tetrahydro-5H-[1]benzopyrano[3,4-c]pyridin-5-one]	10.0	0.21	6	1.23
CC(CN1CCc2c(c(=O)oc3ccccc23)C1)N(C)C (centres unmarked) [H H H Me Me, 3-[2-(Dimethylamino)propyl]-1,2,3,4-tetrahydro-5H-[1]benzopyrano[3,4-c]pyridin-5-one]	10.0	0.192	22	4.15
CCN(CC)C(C)CN1CCc2c(c(=O)oc3cc(C)ccc23)C1 (centres unmarked) [H Me H Et Et, 3-[2-(Diethylamino)propyl]-1,2,3,4-tetrahydro-8-methyl-5H-[1]benzopyrano[3,4-c]pyridin-5-one]	6.6	0.111	4.6	0.51
CCN(C)C(C)CN1CCc2c(c(=O)oc3cc(C)ccc23)C1 (centres unmarked) [H Me H Me Et, 3-[2-(Ethylmethylamino)propyl]-1,2,3,4-tetrahydro-8-methyl-5H-[1]benzopyrano[3,4-c]pyridin-5-one]	8.8	0.15	2.2	0.336
Cc1ccc2c3c(c(=O)oc2c1)CN(CC(C)N(C)C)CC3 (centres unmarked) [H Me H Me Me, 3-[2-(Dimethylamino)propyl]-1,2,3,4-tetrahydro-8-methyl-5H-[1]-benzopyrano[3,4-c]pyridin-5-one]	10.0	0.114	3.7	0.421
CCN(CC)C(C)CN1CCc2c(c(=O)oc3cc(OC)c(OC)cc23)C1.Cl.Cl (centres unmarked) [MeO MeO H Et Et, 3-[2-(Diethylamino)propyl]-1,2,3,4-tetrahydro-8,9-dimethoxy-5H-[1]benzopyrano[3,4-c]pyridin-5-one dihydrochloride]	7.8	0.073	3.5	0.257
COc1cc2oc(=O)c3c(c2cc1OC)CCN(CC(C)N(C)C)C3.Cl.Cl (centres unmarked) [MeO MeO H Me Me, 3-[2-(Dimethylamino)propyl]-1,2,3,4-tetrahydro-8,9-dimethoxy-5H-[1]benzopyrano[3,4-c]pyridin-5-one dihydrochloride]	5.2	0.098	4.5	0.441
